Activity calls are given as the source filed them. Cut-off read from the data, not from the text of the source, for most assays here: actives have a measured EC50 and inactives only a lower limit.
Molecular target: T1, Calpain-2 catalytic subunit (Sus scrofa, UniProt P43367)
T1 sequence (P43367 whole entry): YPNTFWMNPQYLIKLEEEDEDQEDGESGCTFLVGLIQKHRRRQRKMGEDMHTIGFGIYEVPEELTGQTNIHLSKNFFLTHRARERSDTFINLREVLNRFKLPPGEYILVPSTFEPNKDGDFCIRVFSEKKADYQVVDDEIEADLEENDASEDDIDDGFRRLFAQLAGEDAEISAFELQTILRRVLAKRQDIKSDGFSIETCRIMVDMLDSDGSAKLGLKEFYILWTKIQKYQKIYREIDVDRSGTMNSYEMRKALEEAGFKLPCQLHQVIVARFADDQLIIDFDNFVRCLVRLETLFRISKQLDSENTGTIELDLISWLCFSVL
Test: pig calpain II inhibitor potency, dose response, biochemical, fluorogenic peptide substrate (AID 1420)
Type: functional
Settings: not given
With `CCOC(=O)c1c(NC(=O)CSc2nnnn2C)sc(C)c1-c1ccc(C)cc1` the IC50 was 5.1 µM (not active).
With `CCOc1ccccc1C(=O)N1c2ccccc2Sc2ccccc21` the IC50 was 4.06 µM (not active).
With `Cn1c(NCc2ccco2)nc2c1c(=O)n(Cc1ccc(Cl)cc1)c(=O)n2C` the IC50 was 1.88 µM (not active).
For `COc1ccc(NC(=O)c2noc(C(C)C)c2[N+](=O)[O-])cc1`, the IC50 was 9.64 µM (not active).
With `c1ccc(-c2cn(-c3ccccc3)c3ncnc(N4CCCCC4)c23)cc1` the IC50 was 5.36 µM (not active).
In the case of `COc1ccc(NC(=S)N(CCCN2CCOCC2)Cc2cn(C)c3ccccc23)cc1`, the IC50 is reported as 0.737 µM (not active).
For `CN(C)C(=O)C(=O)c1c(-c2ccccc2)cc2ccccn12`, the IC50 was > 50 µM (not active).
In the case of `Cc1ccc(C)c(N(C(=O)Cc2cccs2)C(C(=O)NC2CCCC2)c2ccc(C)o2)c1` (stereo not given), the IC50 is reported as 7.05 µM (not active).

System: not listed separately
Test: inhibitors of SNCA 5'UTR-driven reporter translation, confirmation, H4 neuroglioma cells, luminescence (AID 1988)
Type: functional, cell-based
Settings: not given
With `CC(C)OC(=O)c1cc2c(ccn2C)n1CC(=O)N(Cc1ccccc1)c1ccccc1` the EC50 was 13.7 µM (active).
With `Cn1c(NCc2ccco2)nc2c1c(=O)n(Cc1ccc(Cl)cc1)c(=O)n2C` the EC50 was > 120 µM (not active).
With `Cc1nc2ncnn2c(Nc2ccc3c(c2)OCO3)c1Cc1ccccc1` the EC50 was > 120 µM (not active).
In the case of `CC/C(=N\CCc1c(C)[nH]c2ccc(OC(F)(F)F)cc12)C1=C(O)CC(c2ccccc2)CC1=O` (stereo not given), the EC50 is reported as 8.9 µM (active).

System: not listed separately
Test: NIH-3T3 fibroblast cytotoxicity, dose response, cytotoxicity control, cell-based, fluorescence, Alamar Blue, secondary assay (AID 2327);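 note: NIH-3T3 mouse fibroblasts cultured with fluconazole at 8 µg/mL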
Type: functional
Settings: not given
For `O=C(NCC(=O)N(CC1CCCO1)C(C(=O)NC1CCCCC1)c1ccccc1)c1ccco1` (stereo not given), the EC50 was > 150 µM (inactive).
In the case of `Cc1cc(OCC(=O)NNC(=S)NC(=O)c2cccs2)ccc1Cl`, the EC50 is reported as 74.8 µM (active).
In the case of `O=C(COS(=O)c1ccccc1)Nc1cc(Cl)ccc1N1CCOCC1` (stereo not given), the EC50 is reported as > 160 µM (inconclusive).
With `CNC(=O)COC(=O)c1c2c(nc3ccccc13)CCC2` the EC50 was > 160 µM (inactive).
With `O=C(Nc1ccncc1)c1ccc(Br)cc1` the EC50 was > 150 µM (inactive).
In the case of `Cc1onc(-c2ccccc2)c1C(=O)NC(=S)NNC(=O)c1cccnc1`, the EC50 is reported as > 160 µM (inactive).
For `O=C(N/N=C/c1sc(N2CCCCC2)nc1-c1cccs1)c1cccnc1`, the EC50 was > 160 µM (inconclusive).

System: not listed separately
Test: C. albicans growth with fluconazole, confirmation, fluorescence, retest (AID 2467)
Type: functional, cell-based
Settings: not given
In the case of `O=C(NCC(=O)N(CC1CCCO1)C(C(=O)NC1CCCCC1)c1ccccc1)c1ccco1` (stereo not given), the EC50 is reported as 6.52 µM (active).
For `Cc1cc(OCC(=O)NNC(=S)NC(=O)c2cccs2)ccc1Cl`, the EC50 was 2.09 µM (active).
With `O=C(COS(=O)c1ccccc1)Nc1cc(Cl)ccc1N1CCOCC1` (stereo not given) the EC50 was 2.82 µM (active).
With `CNC(=O)COC(=O)c1c2c(nc3ccccc13)CCC2` the EC50 was > 38 µM (not active).
In the case of `O=C(Nc1ccncc1)c1ccc(Br)cc1`, the EC50 is reported as > 38 µM (not active).
For `Cc1onc(-c2ccccc2)c1C(=O)NC(=S)NNC(=O)c1cccnc1`, the EC50 was > 38 µM (not active).
For `O=C(N/N=C/c1sc(N2CCCCC2)nc1-c1cccs1)c1cccnc1`, the EC50 was > 38 µM (not active).

System: not listed separately
Test: inhibitors of firefly luciferase expression or activity, dose response, H4 neuroglioma cells, luminescence (AID 1990)
Type: functional, cell-based
Settings: not given
In the case of `CC(C)OC(=O)c1cc2c(ccn2C)n1CC(=O)N(Cc1ccccc1)c1ccccc1`, the EC50 is reported as > 120 µM (not active).
With `Cn1c(NCc2ccco2)nc2c1c(=O)n(Cc1ccc(Cl)cc1)c(=O)n2C` the EC50 was 16.9 µM (active).
With `Cc1nc2ncnn2c(Nc2ccc3c(c2)OCO3)c1Cc1ccccc1` the EC50 was 43.7 µM (active).
In the case of `CC/C(=N\CCc1c(C)[nH]c2ccc(OC(F)(F)F)cc12)C1=C(O)CC(c2ccccc2)CC1=O` (stereo not given), the EC50 is reported as 10.7 µM (active).

System: H9c2;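 note: confirmatory concentration-response retest of ultra-high-throughput screening hits for modulation of myocardial damage; cell death induced by hydrogen peroxide oxidative stress; compound pretreatment for 60 min then peroxide exposure for 2 h; potency is for protecting the cells against peroxide damage rather than for killing them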
Test: cells
Type: functional, cell-based
Settings: Rattus norvegicus, H9c2, Myocardium
With `Cn1c(NCc2ccco2)nc2c1c(=O)n(Cc1ccc(Cl)cc1)c(=O)n2C` the IC50 was > 79 µM (inactive).

Molecular target: T2, Corticotropin-releasing factor receptor 2/Corticotropin-releasing factor-binding protein (Homo sapiens, UniProt P24387+Q13324)
T2 sequence (Q13324 whole entry): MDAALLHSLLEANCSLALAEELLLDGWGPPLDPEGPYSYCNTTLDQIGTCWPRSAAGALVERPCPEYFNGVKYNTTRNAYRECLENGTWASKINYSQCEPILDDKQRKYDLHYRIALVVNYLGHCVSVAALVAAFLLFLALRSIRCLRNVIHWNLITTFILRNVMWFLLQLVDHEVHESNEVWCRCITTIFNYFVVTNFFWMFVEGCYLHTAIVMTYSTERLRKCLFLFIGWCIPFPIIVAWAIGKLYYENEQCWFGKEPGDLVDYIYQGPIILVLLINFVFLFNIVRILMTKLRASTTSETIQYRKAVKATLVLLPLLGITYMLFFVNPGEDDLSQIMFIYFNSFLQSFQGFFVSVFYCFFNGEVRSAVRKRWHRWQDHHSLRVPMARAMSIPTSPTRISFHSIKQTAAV
T2 sequence (P24387 whole entry): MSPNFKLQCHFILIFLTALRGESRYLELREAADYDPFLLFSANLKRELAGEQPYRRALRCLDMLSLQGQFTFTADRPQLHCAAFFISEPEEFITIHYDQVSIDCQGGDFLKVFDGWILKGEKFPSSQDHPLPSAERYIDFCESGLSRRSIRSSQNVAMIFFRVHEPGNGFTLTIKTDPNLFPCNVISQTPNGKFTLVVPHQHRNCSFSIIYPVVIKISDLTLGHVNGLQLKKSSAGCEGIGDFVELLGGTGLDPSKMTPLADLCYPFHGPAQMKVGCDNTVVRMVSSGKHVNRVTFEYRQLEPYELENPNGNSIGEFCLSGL
Test: activators of CRF receptor 2 with binding protein – uHTS hits, confirmation (AID 602473)
Type: functional
Settings: read-out: EC50_Mean
With `COc1ccc(C(=O)NNC(=S)NC(=O)c2ccc(OC)cc2)cc1` the EC50 was 5.09 µM (active).

System: not listed separately
Test: Luminescence Cell-Based Dose Response HTS to Identify Inhibitors of 5'UTR Stem-Loop Driven Prion Protein mRNA Translation in H4 Neuroglioblastoma Cells. [Related pubchem assays: 1827 (Project Summary), 1813 (Primary HTS)]
Type: functional
Settings: not given
With `CC(C)OC(=O)c1cc2c(ccn2C)n1CC(=O)N(Cc1ccccc1)c1ccccc1` the EC50 was > 120 µM (not active).
With `Cc1nc2ncnn2c(Nc2ccc3c(c2)OCO3)c1Cc1ccccc1` the EC50 was > 120 µM (not active).
With `CC/C(=N\CCc1c(C)[nH]c2ccc(OC(F)(F)F)cc12)C1=C(O)CC(c2ccccc2)CC1=O` (stereo not given) the EC50 was 16.8 µM (active).
